Test results published in patent US20110237606A1, “3-Deazaneplanocin Derivatives” (AGENCY OF SCIENCE, TECHNOLOGY AND RESEARCH, priority 2008, published 2011).
Counter-ions that a name gives are not always drawn.

Experiments:
HCT115 ER-E2F1 cells = test: E2F1-induced apoptosis assay (ER-E2F1 activated by 4-OHT), FACS subG1; type: cell-based; conditions: for E2F1 Induced apoptosis (+4-OHT) % Apoptosis: with 4-OHT (value in parentheses); for E2F1 Induced apoptosis % Apoptosis: without 4-OHT (value before the parentheses), 'No activity'
Text: Two assays were used to measure the compound's activity in induce apoptosis. The first assay measures the activity of compound to activate E2F1-induced apoptosis. In this assay, transcription factor E2F1 was engineered with ER receptor ligand binding domain. Addition of 4-OHT will be able to activate ER-E2F1 complex activity.
Fluorescence activated cell sorting (FACS) also known as flow cytometry is the technique used to determine apoptosis in this set of experiments. Apoptosis is indicated by cell populations with DNA content in the subG1 range. To determine the activity of these compounds, the inventors used HCT115 ER-E2F1 cells to determine the activity of the compound in inducing E2F1-dependent apoptosis. In this assay, addition of 4-OHT ligand will activate E2F1. DZNep has been show previously to activate OHT-induced apoptosis in this system.

colon cancer cells = test: Apoptosis induction in combination with histone deacetylase inhibitor TSA; type: cell-based; conditions: 48 h
Text: The compound may show activity to activate E2F1-induced apoptosis of at least about 15%, or at least about 20 or 25%, or about 15 to 25%, 15 to 30%, 15 to 20% or 20 to 25%. In this context, transcription factor E2F1, which is involved in the action of tumour suppressing proteins, was engineered with ER receptor ligand binding domain. (ER receptor is a nuclear hormone type of intracellular oestrogen receptor.) The compound may show activity to activate E2F1-induced apoptosis in the presence of 4-OHT of at least about 25% or of at least about 30, 40, 50, 60, 70 or 80%, or of about 25 to about 80%, or about 30 to 80, 50 to 80, 60 to 80 or 50 to 70%, e.g. about 25, 30, 35, 40, 45, 50, 55, 60, 65, 70, 75, 80 or 85%. 4-OHT is 4-hydroxytamoxifen, an anti-estrogenic metabolite of tamoxifen with a much higher affinity for oestrogen receptors than tamoxifen itself. The compound may show apoptosis induction in colon cancer cells with histone deacetylase inhibitor TSA (Trichostatin A) of at least about 40%, or at least about 50, 60, 70 or 80%, or about 40 to about 90%, or about 50 to 90, 70 to 90, 40 to 60 or 50 to 80%, e.g. about 40, 50, 60, 70, 80 or 90%. It may be capable of inhibiting the function of Polycomb repressive complex 2 (PRC2) proteins. In this context, activity % refers to the percentage of cell undergoing apoptosis (death) under the combination drug treatment of DZNep analogue with TSA for 48 h.
The second assay was designed to measure synergistic effect of new compounds with histone deacetylase inhibitor TSA for apoptosis induction in colon cancer cells. DZNep is known to synergy with TSA to induce strong apoptosis in colon cancer cells ((Jiang et al., Cancer Cell, 13, 529-541, 2008). Again the new compounds are compared with DZNep in the context of inducing apoptosis with TSA. Assays were conducted in accordance with Jiang et al (above).

SMILES | E2F1 Induced apoptosis (+4-OHT) % Apoptosis (HCT115 ER-E2F1 cells) [%] | E2F1 Induced apoptosis % Apoptosis (HCT115 ER-E2F1 cells) | Combination with HDAC inhibitor TSA % Apoptosis (colon cancer cells)
Nc1nccc2c1ncn2[C@@H]1C=C(CO)[C@@H](O)[C@H]1O [Compound 22, 3-Deazaneplanocin A, reference compound] | 65 |  | 
Nc1ncnc2c1ncn2C1C=CCC1 (racemic) [Compound 29, (±)-9-(cyclopent-2-enyl)-9H-purin-6-amine] |  | No activity | No activity
Nc1ncnc2c1ncn2[C@@H]1CC[C@@H](O)[C@H]1O (racemic) [Compound 32, (±)-(1R,2S,3R)-3-(6-Amino-9H-purin-9-yl)-1,2-cyclopentanediol hydrochloride] | 44 |  | 
Cl.Nc1nccc2c1ncn2[C@@H]1C[C@H](CO)[C@@H](O)[C@H]1O [Compound 24, 3-Deazaaristeromycin hydrochloride] | 60 | 28% | 70%
O=c1[nH]cnc2c1ncn2[C@@H]1C=C(CO)[C@@H](O)[C@H]1O [Compound 11] |  | No activity | No activity
NC(=O)c1cn([C@@H]2C=C(CO)[C@@H](O)[C@H]2O)cn1 [Compound 14] |  | No activity | No activity
NC(=O)c1ncn([C@@H]2C=C(CO)[C@@H](O)[C@H]2O)n1 [Compound 13] |  | No activity | No activity
CC1(C)O[C@@H]2[C@H](O1)C(CO)=C[C@H]2n1cnc2c(N)nccc21 [Compound 23, 2′,3′-O-Isopropylidene-3-deazaneplanocin A] | 25 |  | No activity
CC1(C)O[C@@H]2[C@H](O1)C(COC(c1ccccc1)(c1ccccc1)c1ccccc1)=C[C@H]2n1cnc2cncc(Cl)c21 [Compound 2] |  | No activity | 
CC1(C)O[C@@H]2[C@H](O1)C(CO)=C[C@H]2n1cnc2c(N)ncnc21 [Compound 28] |  | No activity | No activity
COC(=O)c1cn([C@@H]2C=C(COC(c3ccccc3)(c3ccccc3)c3ccccc3)[C@H]3OC(C)(C)O[C@H]32)cn1 [Compound 17] |  | No activity | No activity
CC1(C)O[C@H]2[C@H](n3cnc4c(N)ncnc43)CC[C@H]2O1 (racemic) [Compound 30, (±)-9-(2,2-dimethyl-tetrahydro-3aH-cyclopenta[d][1,3]dioxol-4-yl)-9H-purin-6-amine] |  | No activity | No activity
O=c1ccn([C@@H]2C=C(CO)[C@@H](O)[C@H]2O)c(=O)[nH]1 [Compound 12] |  | No activity | No activity
Cc1cn([C@@H]2C=C(COC(c3ccccc3)(c3ccccc3)c3ccccc3)[C@H]3OC(C)(C)O[C@H]32)c(=O)n(C(=O)c2ccccc2)c1=O [Compound 18] |  | No activity | No activity
CC1(C)O[C@@H]2[C@H](O1)C(COC(c1ccccc1)(c1ccccc1)c1ccccc1)=C[C@H]2n1cnc2c(N)ncnc21 [Compound 16] |  | No activity | No activity
O=C(c1ccccc1)n1c(=O)ccn([C@@H]2C=C(CO)[C@@H](O)[C@H]2O)c1=O [Compound 8] |  | No activity | No activity

SMILES | E2F1 Induced apoptosis (+4-OHT) % Apoptosis (HCT115 ER-E2F1 cells) [%] | E2F1 Induced apoptosis % Apoptosis (HCT115 ER-E2F1 cells) | Combination with HDAC inhibitor TSA % Apoptosis (colon cancer cells)
CC1(C)O[C@@H]2[C@H](O1)C(COC(c1ccccc1)(c1ccccc1)c1ccccc1)=C[C@H]2n1cnc2c(Cl)nccc21 [Compound 1] |  | No activity | 
COC(=O)c1ncn([C@@H]2C=C(CO)[C@@H](O)[C@H]2O)n1 [Compound 7] |  | No activity | No activity
CC1(C)O[C@@H]2[C@H](O1)C(COC(c1ccccc1)(c1ccccc1)c1ccccc1)=C[C@H]2n1ccc(=O)n(C(=O)c2ccccc2)c1=O [Compound 19] |  | No activity | No activity
Cc1cn([C@@H]2C=C(CO)[C@@H](O)[C@H]2O)c(=O)[nH]c1=O [Compound 10] |  | No activity | No activity
Nc1ncnc2c1ncn2[C@@H]1C=C(COC(=O)c2ccccc2)[C@@H](O)[C@H]1O [Compound 27, ((3R,4S,5R)-3-(6-amino-9H-purin-9-yl)-4,5-dihydroxycyclopent-1-enyl)methyl benzoate hydrochloride] | 30 |  | 
Nc1ncnc2c1ncn2[C@@H]1CC[C@H](O)[C@@H]1O (racemic) [Compound 33, (±)-(1R,2S,3S)-3-(6-Amino-9H-purin-9-yl)-1,2-cyclopentanediol hydrochloride] |  | No activity | No activity
CC1(C)O[C@@H]2[C@H](O1)C(COC(c1ccccc1)(c1ccccc1)c1ccccc1)=C[C@H]2n1cnc2c(Cl)ncnc21 [Compound 20] |  | No activity | No activity
CC1(C)O[C@@H]2[C@H](O1)C(COC(c1ccccc1)(c1ccccc1)c1ccccc1)=C[C@@H]2O [Compound 15] |  | No activity | No activity
Cc1cn([C@@H]2C=C(CO)[C@@H](O)[C@H]2O)c(=O)n(C(=O)c2ccccc2)c1=O [Compound 9] |  | No activity | No activity
COC(=O)c1cn([C@@H]2C=C(CO)[C@@H](O)[C@H]2O)nn1 [Compound 5] |  | No activity | No activity
CC1(C)O[C@H]2[C@H](CC[C@H]2n2cnc3c(N)ncnc32)O1 (racemic) [Compound 31, (±)-9-(2,2-dimethyl-tetrahydro-3aH-cyclopenta[d][1,3]dioxol-4-yl)-9H-purin-6-amine] |  | No activity | No activity
COC(=O)c1cn([C@@H]2C=C(CO)[C@@H](O)[C@H]2O)cn1 [Compound 6] |  | No activity | No activity
OCC1=C[C@@H](n2cnc3ccnc(Cl)c32)[C@H](O)[C@@H]1O [Compound 4] |  | No activity | No activity
OCC1=C[C@@H](n2cnc3c(Cl)nccc32)[C@H](O)[C@@H]1O [Compound 3] |  | No activity | No activity
CC1=C[C@@H](n2cnc3c(N)ncnc32)[C@H](O)[C@@H]1O [Compound 26, (1S,2R,5R)-5-(6-amino-9H-purin-9-yl)-3-methylcyclopent-3-ene-1,2-diol hydrochloride] | 40 |  | 
